Reference: patent US8846947B2, “Benzimidazoles and related analogs as sirtuin modulators” (GlaxoSmithKline LLC, priority 2008, dated 2014)
Read-outs that look alike come from different tables or passages of the source.

Target: T1, SIRT1 (Homo sapiens, UniProt Q96EB6)
T1 sequence (Q96EB6 1-747): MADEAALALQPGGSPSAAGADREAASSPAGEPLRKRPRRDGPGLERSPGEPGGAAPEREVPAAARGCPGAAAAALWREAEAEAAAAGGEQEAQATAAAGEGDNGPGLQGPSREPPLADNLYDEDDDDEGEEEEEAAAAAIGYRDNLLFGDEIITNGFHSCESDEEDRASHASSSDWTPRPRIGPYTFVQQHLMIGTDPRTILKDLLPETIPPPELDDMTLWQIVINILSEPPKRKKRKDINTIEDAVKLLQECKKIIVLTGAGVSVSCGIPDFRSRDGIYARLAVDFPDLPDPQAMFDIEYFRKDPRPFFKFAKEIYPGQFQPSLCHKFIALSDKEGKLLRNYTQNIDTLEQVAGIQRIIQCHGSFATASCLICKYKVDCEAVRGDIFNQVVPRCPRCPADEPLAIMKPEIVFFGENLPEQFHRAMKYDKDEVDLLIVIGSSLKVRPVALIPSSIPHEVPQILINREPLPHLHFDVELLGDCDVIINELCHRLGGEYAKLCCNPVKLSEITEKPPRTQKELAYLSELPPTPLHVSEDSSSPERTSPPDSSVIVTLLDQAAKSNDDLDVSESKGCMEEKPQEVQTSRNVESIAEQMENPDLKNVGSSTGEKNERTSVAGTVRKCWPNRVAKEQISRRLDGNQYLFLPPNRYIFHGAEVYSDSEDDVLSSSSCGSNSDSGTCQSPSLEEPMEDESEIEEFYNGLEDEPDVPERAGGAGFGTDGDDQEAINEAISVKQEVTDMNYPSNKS
Assay: Mass spectrometry based SIRT1 deacetylase activation assay (acetylated p53-derived peptide substrate)
Type: biochemical
From the text: A mass spectrometry based assay was used to identify modulators of SIRT1 activity. The mass spectrometry based assay utilizes a peptide having 20 amino acid residues as follows: Ac-EE-K(biotin)-GQSTSSHSK(Ac)NleSTEG-K(5TMR)-EE-NH2 (SEQ ID NO: 1) wherein K(Ac) is an acetylated lysine residue and Nle is a norleucine. The peptide is labeled with the fluorophore 5TMR (excitation 540 nm/emission 580 nm) at the C-terminus. The sequence of the peptide substrate is based on p53 with several modifications. In addition, the methionine residue naturally present in the sequence was replaced with the norleucine because the methionine may be susceptible to oxidation during synthesis and purification.
The mass spectrometry assay is conducted as follows: 0.5 μM peptide substrate and 120 μM βNAD^+ is incubated with 10 nM SIRT1 for 25 minutes at 25° C. in a reaction buffer (50 mM Tris-acetate pH 8, 137 mM NaCl, 2.7 mM KCl, 1 mM MgCl2, 5 mM DTT, 0.05% BSA). Test compounds may be added to the reaction as described above. […] After the 25 minute incubation with SIRT1, 10 μL of 10% formic acid is added to stop the reaction. Reactions are sealed and frozen for later mass spec analysis. Determination of the mass of the substrate peptide allows for precise determination of the degree of acetylation (i.e. starting material) as compared to deacetylated peptide (product).
A control for inhibition of sirtuin activity is conducted by adding 1 μL of 500 mM nicotinamide as a negative control at the start of the reaction (e.g., permits determination of maximum sirtuin inhibition). A control for activation of sirtuin activity is conducted using 10 nM of sirtuin protein, with 1 μL of DMSO in place of compound, to determine the amount of deacetylation of the substrate at a given timepoint within the linear range of the assay. This timepoint is the same as that used for test compounds and, within the linear range, the endpoint represents a change in velocity.
For the above assay, SIRT1 protein was expressed and purified as follows. […] The protein was expressed by induction with 1 mM IPTG as an N-terminal His-tag fusion protein at 18° C. overnight and harvested at 30,000×g. Cells were lysed with lysozyme in lysis buffer (50 mM Tris-HCl, 2 mM Tris[2-carboxyethyl]phosphine (TCEP), 10 μM ZnCl2, 200 mM NaCl) and further treated with sonication for 10 min for complete lysis. The protein was purified over a Ni-NTA column (Amersham) and fractions containing pure protein were pooled, concentrated and run over a sizing column (Sephadex S200 26/60 global). The peak containing soluble protein was collected and run on an Ion-exchange column (MonoQ). Gradient elution (200 mM-500 mM NaCl) yielded pure protein. This protein was concentrated and dialyzed against dialysis buffer (20 mM Tris-HCl, 2 mM TCEP) overnight. The protein was aliquoted and frozen at −80° C. until further use.
Sirtuin modulating compounds that activated SIRT1 were identified using the assay described above and are shown below in Table 1. The EC1.5 values for the activating compounds are represented by A (EC1.5<1.0 uM), B (EC1.5 1-25 uM), C (EC1.5 >25 uM). The percent maximum fold activation is represented by A (Fold activation >200%) or B (Fold Activation <200%).

[1] = 0.5 μM peptide substrate, 120 μM βNAD+, 10 nM SIRT1, 25 min at 25° C.
[2] = 0.5 μM peptide substrate, 120 μM βNAD+, 10 nM SIRT1, 25 min at 25° C., read-out: EC1.5
[3] = 0.5 μM peptide substrate, 120 μM βNAD+, 10 nM SIRT1, 25 minutes at 25° C.

| Fold Act. (percent maximum fold activation) [1] | EC1.5 [2] [nM] | EC1.5 [3] | Fold Act. (percent maximum fold activation) [3] | Compound | also measured |
| --- | --- | --- | --- | --- | --- |
| B (Fold Activation <200%) | 1000 to 25000 | – | – | CC(C)(C)c1ccc(OCCN2CCOCC2)c(-c2nc3c(C(=O)Nc4nccs4)cccc3[nH]2)c1 [Compound 547] | – |
| – | – | C (EC1.5 >25 uM) | B (Fold Activation <200%) | Fc1ccc(C(F)(F)F)c(-c2nc3c(NCc4cccnc4)cccc3[nH]2)c1 [Compound 670] | – |
| – | – | – | – | O=C(Nc1nccs1)c1cccc2[nH]c(-c3ccc(-c4nnn[nH]4)cc3)nc12 [Compound 348] | EC1.5: A (EC1.5<1.0 uM); Fold Act. (percent maximum fold activation): A (Fold activation >200%) |
| – | – | A (EC1.5<1.0 uM) | A (Fold activation >200%) | Cc1nc(C)c(-c2nc3c(C(=O)Nc4nc(CN5CCOCC5)cs4)cccc3[nH]2)s1 [Compound 848] | – |
| – | – | – | – | O=C(Nc1nccs1)c1cccc2[nH]c(-c3cccc(Oc4ccccc4)c3)nc12 [Compound 224] | EC1.5: B (EC1.5 1-25 uM); Fold Act. (percent maximum fold activation): A (Fold activation >200%) |
| – | – | – | – | O=C(Nc1nccs1)c1cccc2[nH]c(-c3ccnc(Cl)c3)nc12 [Compound 231] | EC1.5: A (EC1.5<1.0 uM); Fold Act. (percent maximum fold activation): A (Fold activation >200%) |
| – | – | – | – | Cc1cc(C)nc(NC(=O)c2cccc3[nH]c(-c4ccccc4C(F)(F)F)nc23)c1 [Compound 345] | EC1.5: A (EC1.5<1.0 uM); Fold Act. (percent maximum fold activation): A (Fold activation >200%) |
| A (Fold activation >200%) | < 1000 | – | – | O=C(Nc1nccs1)c1cccc2[nH]c(-c3ccc(OC[C@@H](O)CO)cc3C(F)F)nc12 [Compound 594] | – |
| – | – | – | – | O=C(Nc1cc[n+]([O-])cc1)c1cccc2[nH]c(-c3ccccc3C(F)(F)F)nc12 [Compound 337] | EC1.5: A (EC1.5<1.0 uM); Fold Act. (percent maximum fold activation): A (Fold activation >200%) |
| B (Fold Activation <200%) | > 25000 | – | – | FC(F)(F)c1ccccc1-c1nc2c(Nc3ccccn3)cccc2[nH]1 [Compound 582] | – |
| – | – | – | – | O=C(Nc1ccc(Cl)nc1)c1cccc2[nH]c(-c3cccc(C(F)(F)F)c3)nc12 [Compound 307] | EC1.5: B (EC1.5 1-25 uM); Fold Act. (percent maximum fold activation): B (Fold Activation <200%) |
| – | – | A (EC1.5<1.0 uM) | A (Fold activation >200%) | Cc1cnc(NC(=O)c2cc(F)cc3nc(-c4ccc(F)cc4C(F)F)[nH]c23)s1 [Compound 825] | – |
| – | – | – | – | Cc1cnc(NC(=O)c2cccc3[nH]c(-c4ccnn4-c4ccccc4)nc23)s1 [Compound 381] | EC1.5: A (EC1.5<1.0 uM); Fold Act. (percent maximum fold activation): A (Fold activation >200%) |
| A (Fold activation >200%) | 1000 to 25000 | – | – | O=C(Nc1cccnc1)c1cccc2[nH]c(-c3ccccc3OC3CCNCC3)nc12 [Compound 539] | – |
| – | – | B (EC1.5 1-25 uM) | B (Fold Activation <200%) | FC(F)(F)c1cccc(-c2nc3c(NCc4cccnc4)cccc3[nH]2)c1 [Compound 617] | – |
| A (Fold activation >200%) | < 1000 | – | – | O=C(Nc1ccc(CN2CCCC2)cn1)c1cccc2[nH]c(-c3ccc(Cl)cc3C(F)(F)F)nc12 [Compound 542] | – |

| Fold Act. (percent maximum fold activation) [1] | EC1.5 [2] [nM] | EC1.5 [3] | Fold Act. (percent maximum fold activation) [3] | Compound | also measured |
| --- | --- | --- | --- | --- | --- |
| B (Fold Activation <200%) | 1000 to 25000 | – | – | O=C(Nc1nccs1)c1cccc2[nH]c(-c3cc(F)cc(F)c3OCCN3CCOCC3)nc12 [Compound 585] | – |
| – | – | B (EC1.5 1-25 uM) | A (Fold activation >200%) | CCCN1CCCc2ccc(-c3nc4c(C(=O)Nc5ncc(C)s5)cccc4[nH]3)cc21 [Compound 602] | – |
| – | – | – | – | O=C(Nc1nccs1)c1cccc2[nH]c(-c3cccc(C(F)(F)F)c3F)nc12 [Compound 217] | EC1.5: C (EC1.5 >25 uM); Fold Act. (percent maximum fold activation): B (Fold Activation <200%) |
| – | – | A (EC1.5<1.0 uM) | A (Fold activation >200%) | O=C(Nc1nccs1)c1cc(N2CCOCC2)cc2[nH]c(-c3ccc(F)cc3C(F)(F)F)nc12 [Compound 689] | – |
| – | – | A (EC1.5<1.0 uM) | A (Fold activation >200%) | O=C(Nc1cccnn1)c1cncc2[nH]c(-c3ccc(Cl)cc3C(F)(F)F)nc12 [Compound 651] | – |
| – | – | A (EC1.5<1.0 uM) | A (Fold activation >200%) | O=C(Nc1ccccn1)c1cc(N2CCOCC2)cc2[nH]c(-c3ccc(F)cc3C(F)F)nc12 [Compound 750] | – |
| A (Fold activation >200%) | 1000 to 25000 | – | – | CC(C)N1CCN(CCOc2ccccc2-c2nc3c(C(=O)Nc4ccccn4)cccc3[nH]2)CC1 [Compound 486] | – |
| – | – | B (EC1.5 1-25 uM) | A (Fold activation >200%) | O=C(Nc1cccnn1)c1cncc2[nH]c(-c3ccc(F)cc3C(F)(F)F)nc12 [Compound 696] | – |
| A (Fold activation >200%) | < 1000 | – | – | Cc1cnc(NC(=O)c2cccc3[nH]c(-c4ccc(N5CCOCC5)cc4C(F)F)nc23)s1 [Compound 552] | – |
| A (Fold activation >200%) | < 1000 | – | – | O=C(Nc1cccc(CN2CCCC2)c1)c1cccc2[nH]c(-c3ccc(Cl)cc3C(F)(F)F)nc12 [Compound 490, 2-(4-chloro-2-(trifluoromethyl)phenyl)-N-(3-(pyrrolidin-1-ylmethyl)phenyl)-1H-benzo[d]imidazole-4-carboxamide] | – |
| – | – | A (EC1.5<1.0 uM) | A (Fold activation >200%) | O=C(Nc1cccc(OC[C@H](O)CO)c1)c1cccc2[nH]c(-c3ccc(Cl)cc3C(F)F)nc12 [Compound 698] | – |
| – | – | A (EC1.5<1.0 uM) | A (Fold activation >200%) | O=C(Nc1ccc(CN2CCOCC2)nc1)c1cccc2[nH]c(-c3ccccc3C(F)(F)F)nc12 [Compound 674] | – |
| – | – | A (EC1.5<1.0 uM) | A (Fold activation >200%) | O=C(Nc1cccc(OC[C@@H](O)CO)c1)c1cncc2[nH]c(-c3ccccc3C(F)(F)F)nc12 [Compound 747] | – |
| – | – | A (EC1.5<1.0 uM) | A (Fold activation >200%) | O=C(Nc1cccc(CN2CCCC2)n1)c1cccc2[nH]c(-c3ccccc3C(F)(F)F)nc12 [Compound 620, N-(6-(pyrrolidin-1-ylmethyl)pyridin-2-yl)-2-(2-(trifluoromethyl)phenyl)-1H-benzo[d]imidazole-4-carboxamide] | – |
| A (Fold activation >200%) | 1000 to 25000 | – | – | O=C(Nc1cccc2[nH]c(-c3ccc(Cl)cc3C(F)(F)F)nc12)c1cccnc1 [Compound 418] | – |
